As usually defined, the ED50 is the dose that gives a 50% effect, or the effect in half of the subjects. One may read the LD50 as the dose at which mortality reaches 50%.

We go through four compounds from patent US3989835A, “Method of using 6-substituted amino phenyl-2,3,5,6-tetra-hydro[2,1-b]thiazoles for controlling gastrointestinal nematodes” (American Cyanamid Company, priority 1974, dated 1976).

“And” between values parts separate entries of the source, which are not always exact repeats. Equal entries are not always repeated. Structures can show the parent of a compound that is named as a salt. Where two headings read alike, the source gives them in different places.

One data set deals with whipworms. To be noted: prior art compounds, especially in dogs; cited from earlier work.
Data set [1] relates to helminths. The note with it: prior art compounds; cited from earlier work.
The test system of another data set is Trichuris vulpis. In words: Oral or subcutaneous activity vs. mature Trichuris vulpis in dogs (critical test). The format is in vivo. As for the experimental part: (§1) Dogs infected with mature adult whipworms Trichuris vulpis were treated with various single or double doses of unsubstituted or substituted tetramisole analogs by the oral or subcutaneous route (Table XI hereinafter). Whipworms passed in the feces were collected for several days, and the whipworms still present determined at necropsy. Percent efficacy was determined in these "critical" tests. […] Trichuris is a type of nematode refactory to treatment with most prior anthelmintics at well tolerated doses. Taxonomically allied nematodes, e.g., Trichinella and Capillaria are also refractory to most anthelmintics.

A further data set deals with Nematospiroides dubius. The data set can be described thus: Anthelmintic efficacy against N. dubius in mice, single oral dose. The format is in vivo, Nematospiroides dubius (in albino female mice).
In data set [2] the test system is helminths. In words: Activity against helminths (general statement). To be noted: in vivo.
Data set [3] is described as follows: in vivo. The note with it: for Approx. LD50 /ED50: chemotherapeutic index, mouse oral, N. dubius; for LD50: mouse, in vivo, po; for Dead/Total: mice. From the text:
Data on the acute oral toxicity to mice of various single oral doses of the above compounds and several analogs were obtained by conventional procedures, (Table IX hereinafter).

The nature of data set [4]: in vivo. To be noted: dog. As for the experimental part: as §1
[5] abbreviates: oral 5 Mg./Kg., based on total worms in all dogs.
Where [6] appears, read: Heligmosomoides polygyrus, po, mouse oral, Table IX, read-out: Approx. ED50 vs. N. dubius.
The mark [7] stands for this setting: Approx. LD50, mouse oral, Table IX.

`c1ccc(C2CN3CCSC3=N2)cc1` (racemic) [dl-tetramisole, dl-6-phenyl-2,3,5,6-tetrahydroimidazo[2,1-b]thiazole, reference compound]: the “activity against whipworms in words” value in the data set on whipworms is “not sufficiently active against whipworms, especially in dogs”. For the same compound, the “activity against helminths in words” value in the data set with helminths [1] was “highly effective against most helminths”. In addition, the “oral dose at which inactive (% Efficacy Orally column)” value in the data set on Trichuris vulpis (> means inactive at dose shown, oral) is over 10 mg/kg. The “% Efficacy SC” value with Trichuris vulpis (SC 10 Mg./Kg., listed as dl H) stood at 2%. In addition, the ED50 in the data set on Nematospiroides dubius (Heligmosomoides polygyrus, read-out: ED50 (approximate dose which removes 50% of the worms), N. dubius in mice, single oral dose) is about 9 mg/kg; with Nematospiroides dubius (Heligmosomoides polygyrus, as Base, single oral dose, mice, > indicates inactive at dose shown, read-out: Approx. ED50), 9 mg/kg; with Nematospiroides dubius (Heligmosomoides polygyrus, mouse oral, Table IX, read-out: Approx. ED50 vs. N. dubius), 9 mg/kg. Besides, the “Average % Efficacy” value with Nematospiroides dubius (single oral dose 6 mg./kg.) turned out to be 7%; in the data set with Nematospiroides dubius (single oral dose 8 mg./kg.), 33%; with Nematospiroides dubius (single oral dose 10 mg./kg., N. dubius, mice), 70%; with Nematospiroides dubius (single oral dose 12 mg./kg.), 66%; in the data set on Nematospiroides dubius (single oral dose 16 mg./kg.) it was 88%; in the data set on Nematospiroides dubius (single oral dose 20 mg./kg.) it was 98%. The “% Efficacy per Group” value with Nematospiroides dubius (single oral dose 8 mg./kg.) is 28% and 33% and 39%; in the data set on Nematospiroides dubius (single oral dose 12 mg./kg.), 60% and 62% and 68% and 73%; with Nematospiroides dubius (single oral dose 16 mg./kg.), 74% and 91% and 92% and 94%; with Nematospiroides dubius (single oral dose 20 mg./kg.), 96% and 98% and 99% and 100%.

`c1ccc(C2CN3CCSC3=N2)cc1` (stereo not drawn) [l H, l-6-phenyl-2,3,5,6,-tetrahydroimidazo[2,1-b]thiazole, reference compound]: the “activity against whipworms in words” value with whipworms was “not sufficiently active against whipworms, especially in dogs”. Further, the “activity against helminths in words” value with helminths [1] was “highly effective against most helminths”. Also, the “% Efficacy SC” value stood at 8% in the data set with Trichuris vulpis (SC 5 Mg./Kg.), 50% with Trichuris vulpis (SC 10 Mg./Kg.), 43% in the data set with Trichuris vulpis (SC 15 Mg./Kg.) and 100% in the data set with Trichuris vulpis (SC 20 Mg./Kg.).

In the case of `Nc1cccc(C2CN3CCSC3=N2)c1` (stereo not drawn) [m-NH2 l, l-6-(m-Aminophenyl)-2,3,5,6-tetrahydroimidazo[2,1-b]thiazoleDihydrochloride], the “% Efficacy SC” value in the data set on Trichuris vulpis (SC 1.25 Mg./Kg.) worked out at 72%; in the data set on Trichuris vulpis (SC 2.5 Mg./Kg.), 100%. Further, the “% Efficacy Orally” value in the data set on Trichuris vulpis (oral 1.25 Mg./Kg.) is given as 94%; in the data set with Trichuris vulpis (oral 2.5 Mg./Kg.) it was 100%; in the data set with Trichuris vulpis (setting [5]), 100%. The “activity relative to the dl compound” value in the data set on helminths [2] was “almost twice as active as the dl compound”. Moreover, the ED50 in the data set on Nematospiroides dubius (setting [6]) stood at 0.75 mg/kg. Further, the “Percent Nematospiroides Activity” value amounted to 59% in the data set on Nematospiroides dubius (single oral dose 1.25 mg./Kg., molar-adjusted); 88% in the data set on Nematospiroides dubius (single oral dose 2.0 mg./Kg., molar-adjusted); 98% in the data set on Nematospiroides dubius (single oral dose 4.0 mg./Kg., molar-adjusted). Also, the “Approx. LD50 /ED50” value in the data set “in vivo [3]” (Table IX) is on record as 20. Also, the LD50 in “in vivo [3]” (setting [7]) is 15 mg/kg; in the data set “in vivo [3]” (LD50, mice, adjusted to molar equivalents of tetramisole free base), about 15 mg/kg. Also, the Dead/Total in “in vivo [3]” (single oral dose 4-5 Mg./Kg.) is 0/12; in “in vivo [3]” (single oral dose 10 Mg./Kg.), 2/10; in the data set “in vivo [3]” (single oral dose 15 Mg./Kg.), 3/9; in “in vivo [3]” (single oral dose 20 Mg./Kg.), 4/5. Besides, the MTD amounted to 10 mg/kg in “in vivo [4]” (po) and 4 mg/kg in “in vivo [4]” (sc).

As to `CNc1cccc(C2CN3CCSC3=N2)c1.Cl.Cl` (stereo not drawn) [m-NH--CH3 dl, 2,3,5,6-Tetrahydro-6-(m-methylaminophenyl)imidazo[2,1-b]thiazole Dihydrochloride], the “% Efficacy SC” value amounted to 29% with Trichuris vulpis (SC 2.5 Mg./Kg.) and 94% in the data set with Trichuris vulpis (SC 5 Mg./Kg.). The “% Efficacy Orally” value in the data set on Trichuris vulpis (setting [5]) is 100%. Also, the ED50 turned out to be 7 mg/kg with Nematospiroides dubius (Heligmosomoides polygyrus, po, as Base, single oral dose, mice, > indicates inactive at dose shown, read-out: Approx. ED50) and 7 mg/kg in the data set on Nematospiroides dubius (setting [6]). Moreover, in the data set on Nematospiroides dubius (Heligmosomoides polygyrus, po, single oral dose 2.0 mg./Kg., molar-adjusted, read-out: Percent Nematospiroides Activity), the inhibition in vivo at 2 mg/kg was found to be 28%. In addition, the inhibition in vivo at 10 mg/kg with Nematospiroides dubius (Heligmosomoides polygyrus, po, single oral dose 10 mg./Kg., molar-adjusted, read-out: Percent Nematospiroides Activity) is 66%. The inhibition in vivo at 20 mg/kg with Nematospiroides dubius (Heligmosomoides polygyrus, po, single oral dose 20 mg./Kg., molar-adjusted, read-out: Percent Nematospiroides Activity) turned out to be 100%. Moreover, in the data set with Nematospiroides dubius (Heligmosomoides polygyrus, po, single oral dose 30 mg./Kg., molar-adjusted, read-out: Percent Nematospiroides Activity), the inhibition in vivo at 30 mg/kg was found to be 100%. The “Approx. LD50 /ED50” value in “in vivo [3]” (Table IX) is 14. In the data set “in vivo [3]” (setting [7]), the LD50 is 100 mg/kg. The values for the Dead/Total in the data set “in vivo [3]” (single oral dose 20 Mg./Kg.), in the data set “in vivo [3]” (single oral dose 50 Mg./Kg.) and in “in vivo [3]” (single oral dose 100 Mg./Kg.) were 0/4, 0/4 and 2/5, respectively. Further, the MTD in the data set “in vivo [4]” (po) was over 10 mg/kg; in “in vivo [4]” (sc), 30 mg/kg.
